Results: patent publication US6822146B2, “Sulfonylurea-tolerant sunflower line M7” (priority 2000, dated 2004)

How the values were obtained:
Format in all cases: in vivo, sunflower
M5M11 = experiment: Test B greenhouse phytotoxicity, M5M11; settings: in vivo
How it was run: (§1)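 Formulated ALS-inhibiting herbicides sprayed post-emergence at the 4-leaf stage on homozygous mutant sunflower inbreds (M5 maintainers and BC4 male-sterile back-crosses) in the greenhouse, at rates commonly used in registered crops. Two replicates; crop injury rated as % phytotoxicity, 0% meaning no injury.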

M5M12 = experiment: Test B greenhouse phytotoxicity, M5M12; settings: in vivo
How it was run: as §1

BC4-M5M7 = experiment: Test B greenhouse phytotoxicity, BC4-M5M7; settings: in vivo
How it was run: as §1

BC4-M5M11 = experiment: Test B greenhouse phytotoxicity, BC4-M5M11; settings: in vivo
How it was run: as §1

BC4-M5M12 = experiment: Test B greenhouse phytotoxicity, BC4-M5M12; settings: in vivo
How it was run: as §1

'M2' seeds = experiment: Hydroponic selection of M2 seeds with sulfonylurea herbicides; settings: hydroponic beds
Protocol: ‘M2’ seeds were seeded in individual hydroponic beds described as “Large-Scale Hydroponic Screening System” in U.S. Pat. No. 5,084,082 and treated with sulfonylurea herbicides. For each treatment, 10,000 seeds were added per bed. […] Most of the treatments used thifensulfuron-methyl at 20, 40 or 50 μg/L or rimsulfuron at 40 or 80 μg/L. Five plants showing resistance to sulfonylurea herbicides were found during various selection experiments; these are identified in Table 2.

Structure (SMILES) | Maximum Phytotoxicity (M5M11) [%] | Maximum Phytotoxicity (M5M12) [%] | Maximum Phytotoxicity (BC4-M5M7) [%] | Maximum Phytotoxicity (BC4-M5M11) [%] | Maximum Phytotoxicity (BC4-M5M12) [%] | suitability as selection agent ('M2' seeds)
COC(=O)c1ccccc1S(=O)(=O)NC(=O)N(C)c1nc(C)nc(OC)n1 [Tribenuron-methyl, tribenuron-methyl] | 0 | 7.5 | 10 | 17.5 | 20 | 
COC(=O)c1cccc(C)c1S(=O)(=O)NC(=O)Nc1nc(OCC(F)(F)F)nc(N(C)C)n1 [Triflusulfuron-methyl, triflusulfuron-methyl] |  |  |  |  |  | insufficiently active on sunflower
